Assays:
[1] = test system: fluorescence of chlorophyll; assay: Fluorescence of chlorophyll of treated Crofton weed leaves; assay type: biochemical; conditions: 50 μg/mL, strong light 12 hours
Summary of the method: (§1)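 Cleaned Crofton weed leaves had 50 μg/mL compound (methanol diluted in water) applied to the underside, with matching methanol–water control. Vacuum 15 min at 25° C, then 12 h strong light (400 μM m^−2 s^−1) before measuring Hill reaction, electron transfer and chlorophyll fluorescence; four leaves per treatment, tested three times.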

[2] = test system: Crofton weed; assay: Needle puncture pathogenic test on slightly wounded leaf of Crofton weed; assay type: in vivo; conditions: Crofton weed leaf, 50 μg/mL, 25° C., natural light
Summary of the method: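 Compounds in a little methanol were diluted with water to 50 μg/mL (5–100 μg/g in a range test) and applied by needle to slightly wounded Crofton weed leaves. Leaves were kept at 25 °C under natural light with six or more replicates, against methanol/water controls. Lesion spot diameter was measured after 24 h.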

[3] = test system: Polygonum perfoliatum; assay: Leaf piece damage test; assay type: in vivo; parameters: key: 4: The leaf completely dead; 3: Two third of the leaf withered; 2: One half of the leaf withered; 1: Only edge of the leaf withered; 0: Not damage at all; conditions: 50 μg/mL, 4 days
Procedure: (§2) Compounds 7, 14, 15, 16, 40, 45, 48 and 53 were dissolved individually in small amount of methanol, and diluted with distilled water to concentration of 50 μg/mL. Methanol water solution and pure water were used as control. A piece of 5 mm leaf was taken from the second leaf of weed sample and was treated with the solution three times. 5 pieces of the leaf were prepared for each treatment. The damage data were collected 4 days later. The measurement of damage level is described in the Table 9.
(§3) The measurement of the plant damage was calculated by the formula: Damage Index=Σ(damage level×number of plants)×100/4/number of plants in each treatment.

[4] = test system: Crisium setosum; assay: Leaf piece damage test; assay type: in vivo; parameters: key: 4: The leaf completely dead; 3: Two third of the leaf withered; 2: One half of the leaf withered; 1: Only edge of the leaf withered; 0: Not damage at all; conditions: 50 μg/mL, 4 days
Procedure: as §2, §3

[5] = test system: Duchesnea indica; assay: Leaf piece damage test; assay type: in vivo; parameters: key: 4: The leaf completely dead; 3: Two third of the leaf withered; 2: One half of the leaf withered; 1: Only edge of the leaf withered; 0: Not damage at all; conditions: 50 μg/mL, 4 days
Procedure: as §2, §3

[6] = test system: Cyperus rotundus; assay: Leaf piece damage test; assay type: in vivo; parameters: key: 4: The leaf completely dead; 3: Two third of the leaf withered; 2: One half of the leaf withered; 1: Only edge of the leaf withered; 0: Not damage at all; conditions: 50 μg/mL, 4 days
Procedure: as §2, §3

[7] = test system: Youngia japonica; assay: Leaf piece damage test; assay type: in vivo; parameters: key: 4: The leaf completely dead; 3: Two third of the leaf withered; 2: One half of the leaf withered; 1: Only edge of the leaf withered; 0: Not damage at all; conditions: 50 μg/mL, 4 days
Procedure: as §2, §3

[8] = test system: Big Bristlegass; assay: Leaf piece damage test; assay type: in vivo; parameters: key: 4: The leaf completely dead; 3: Two third of the leaf withered; 2: One half of the leaf withered; 1: Only edge of the leaf withered; 0: Not damage at all; conditions: 50 μg/mL, 4 days
Procedure: as §2, §3

[9] = test system: Acalypha australis; assay: Leaf piece damage test; assay type: in vivo; parameters: key: 4: The leaf completely dead; 3: Two third of the leaf withered; 2: One half of the leaf withered; 1: Only edge of the leaf withered; 0: Not damage at all; conditions: 50 μg/mL, 4 days
Procedure: as §2, §3

[10] = test system: Chenopodium serotinum; assay: Leaf piece damage test; assay type: in vivo; parameters: key: 4: The leaf completely dead; 3: Two third of the leaf withered; 2: One half of the leaf withered; 1: Only edge of the leaf withered; 0: Not damage at all; conditions: 50 μg/mL, 4 days
Procedure: as §2, §3

[11] = test system: Cayratia japonica; assay: Leaf piece damage test; assay type: in vivo; parameters: key: 4: The leaf completely dead; 3: Two third of the leaf withered; 2: One half of the leaf withered; 1: Only edge of the leaf withered; 0: Not damage at all; conditions: 50 μg/mL, 4 days
Procedure: as §2, §3

[12] = test system: Erigeron annuus; assay: Leaf piece damage test; assay type: in vivo; parameters: key: 4: The leaf completely dead; 3: Two third of the leaf withered; 2: One half of the leaf withered; 1: Only edge of the leaf withered; 0: Not damage at all; conditions: 50 μg/mL, 4 days
Procedure: as §2, §3

[13] = test system: Commelina bengalensis; assay: Leaf piece damage test; assay type: in vivo; parameters: key: 4: The leaf completely dead; 3: Two third of the leaf withered; 2: One half of the leaf withered; 1: Only edge of the leaf withered; 0: Not damage at all; conditions: 50 μg/mL, 4 days
Procedure: as §2, §3

[14] = test system: Trifolium pretense; assay: Leaf piece damage test; assay type: in vivo; parameters: key: 4: The leaf completely dead; 3: Two third of the leaf withered; 2: One half of the leaf withered; 1: Only edge of the leaf withered; 0: Not damage at all; conditions: 50 μg/mL, 4 days
Procedure: as §2, §3

[15] = test system: Aster ageratoides var. scaberulus; assay: Leaf piece damage test; assay type: in vivo; parameters: key: 4: The leaf completely dead; 3: Two third of the leaf withered; 2: One half of the leaf withered; 1: Only edge of the leaf withered; 0: Not damage at all; conditions: 50 μg/mL, 4 days
Procedure: as §2, §3

[16] = test system: Hill reaction; assay: Hill reaction activity of treated Crofton weed leaves; assay type: biochemical; conditions: 50 μg/mL, strong light 12 hours
Summary of the method: as §1

SMILES: CCCCC1NC(=O)C(C(C)=O)=C1O (stereo not drawn) [Compound 14]
- Fv/Fm [1]: 0.79
- Time of Disease spot [2]: 13.8 ± 0.54 h
- Average diameter of spot after 24 h [2]: 6.37 ± 0.04 mm
- Damage level [3]: 2
- Damage level [4]: 3
- Damage level [5]: 2
- Damage level [6]: 2
- Damage level [7]: 3
- Damage level [8]: 2
- Damage level [9]: 2
- Damage level [10]: 2
- Damage level [11]: 2
- Damage level [12]: 3
- Damage level [13]: 3
- Damage level [14]: 3
- Damage level [15]: 3
- Activity of Hill Reaction [16]: 67.37 uMO2/mgChlh

SMILES: CCCCCC1NC(=O)C(C(C)=O)=C1O (stereo not drawn) [Compound 15]
- Fv/Fm [1]: 0.78
- Time of Disease spot [2]: 9.5 ± 1.26 h
- Average diameter of spot after 24 h [2]: 9.61 ± 1.20 mm
- Damage level [3]: 2
- Damage level [4]: 3
- Damage level [5]: 3
- Damage level [6]: 2
- Damage level [7]: 3
- Damage level [8]: 2
- Damage level [9]: 2
- Damage level [10]: 2
- Damage level [11]: 2
- Damage level [12]: 4
- Damage level [13]: 3
- Damage level [14]: 3
- Damage level [15]: 3
- Activity of Hill Reaction [16]: 62.77 uMO2/mgChlh

SMILES: CCCCCCC1NC(=O)C(C(C)=O)=C1O (stereo not drawn) [Compound 16]
- Fv/Fm [1]: 0.83
- Time of Disease spot [2]: 13.80 ± 0.54 h
- Average diameter of spot after 24 h [2]: 7.61 ± 0.11 mm
- Damage level [3]: 3
- Damage level [4]: 3
- Damage level [5]: 2
- Damage level [6]: 2
- Damage level [7]: 3
- Damage level [8]: 3
- Damage level [9]: 2
- Damage level [10]: 2
- Damage level [11]: 2
- Damage level [12]: 3
- Damage level [13]: 3
- Damage level [14]: 3
- Damage level [15]: 4
- Activity of Hill Reaction [16]: 61.43 uMO2/mgChlh

SMILES: CCCC(Cl)C1NC(=O)C(C(C)=O)=C1O (stereo not drawn) [Compound 40]
- Fv/Fm [1]: 0.82
- Time of Disease spot [2]: 11.93 ± 0.66 h
- Average diameter of spot after 24 h [2]: 8.10 ± 0.90 mm
- Damage level [3]: 3
- Damage level [4]: 3
- Damage level [5]: 2
- Damage level [6]: 2
- Damage level [7]: 3
- Damage level [8]: 3
- Damage level [9]: 3
- Damage level [10]: 2
- Damage level [11]: 2
- Damage level [12]: 3
- Damage level [13]: 3
- Damage level [14]: 3
- Damage level [15]: 3
- Activity of Hill Reaction [16]: 46.20 uMO2/mgChlh

SMILES: CCC(C)C1NC(=O)C(C(=O)CCF)=C1O (stereo not drawn) [Compound 44]
- Fv/Fm [1]: 0.79
- Time of Disease spot [2]: 12.0 ± 1.33 h
- Average diameter of spot after 24 h [2]: 4.07 ± 0.51 mm
- Damage level [3]: 3
- Damage level [4]: 3
- Damage level [5]: 3
- Damage level [6]: 2
- Damage level [7]: 3
- Damage level [8]: 2
- Damage level [9]: 3
- Damage level [10]: 3
- Damage level [11]: 3
- Damage level [12]: 4
- Damage level [13]: 3
- Damage level [14]: 4
- Damage level [15]: 4
- Activity of Hill Reaction [16]: 59.15 uMO2/mgChlh

SMILES: CCC(C)C1NC(=O)C(C(=O)CCc2cc(Cl)cc(Cl)c2)=C1O (stereo not drawn) [Compound 48]
- Time of Disease spot [2]: 13.5 ± 2.77 h
- Average diameter of spot after 24 h [2]: 4.33 ± 0.54 mm
- Damage level [3]: 3
- Damage level [4]: 4
- Damage level [5]: 3
- Damage level [6]: 2
- Damage level [7]: 3
- Damage level [8]: 3
- Damage level [9]: 3
- Damage level [10]: 3
- Damage level [11]: 3
- Damage level [12]: 4
- Damage level [13]: 4
- Damage level [14]: 4
- Damage level [15]: 4

SMILES: CCCC(C#N)C1NC(=O)C(=C(C)O)C1=O (stereo not drawn) [Compound 53]
- Fv/Fm [1]: 0.79
- Time of Disease spot [2]: 12.90 ± 0.27 h
- Average diameter of spot after 24 h [2]: 7.334 ± 0.845 mm
- Damage level [3]: 3
- Damage level [4]: 4
- Damage level [5]: 3
- Damage level [6]: 2
- Damage level [7]: 4
- Damage level [8]: 3
- Damage level [9]: 2
- Damage level [10]: 3
- Damage level [11]: 3
- Damage level [12]: 3
- Damage level [13]: 3
- Damage level [14]: 4
- Damage level [15]: 4
- Activity of Hill Reaction [16]: 42.72 uMO2/mgChlh

Source: US9468209B2, “Method for eradicating weeds with derivatives of 3-acetyl-5-sec-butyl-4-hydroxy-3-pyrrolin-2-one” (priority 2012, dated 2016)
